Assay results reported in paper PMC10384862, “[^212Pb]Pb-eSOMA-01: A Promising Radioligand for Targeted Alpha Therapy of Neuroendocrine Tumors” (Pharmaceuticals, 2023).
Like-named read-outs stand apart in the source and are kept apart here.

Tests used:
CD-1 mice = details: cited from earlier work; for Pancreas uptake: CD-1 mice
[1] = Biodistribution study with lead-212; type: in vivo, mouse; details: mouse, intravenous; for tissue uptake at 1 h: 1 h p.i.; for tissue uptake at 4 h: 4 h p.i.
Protocol: (§1) Six-week-old male Balb/c nu/nu-specific and opportunistic pathogen-tree (SOPF) mice (Janvier Labs, Le Genest-Saint-Isle, France) were housed in individually ventilated cages, with four mice per cage. Upon arrival, the mice were acclimated for 1 week with access to food and water ad libitum. Mice were subcutaneously inoculated on the right shoulder with NCI-H69 cells (5 × 10^6 cells suspended in 100 μL of 1/3 Matrigel (Corning Inc.; Corning, NY, USA) and 2/3 Hank’s balanced salt solution (Gibco; Paisley, UK). NCI-H69 xenografts were allowed to grow for 3 weeks. Tumor sizes were 391 ± 173 mm^3 at the start of the studies.
(§2) Biodistribution studies were performed to determine tumor and organ uptake of [^212Pb]Pb-DOTAM-TATE, [^212Pb]Pb-eSOMA-01, and [^212Pb]Pb-eSOMA-02. Animals (n = 4 for each time point) were injected intravenously (i.v.) with an average of 100 kBq/0.5 nmol. At 3 selected time points (1, 4, and 24 h) p.i., blood was collected via retro-orbital puncture under isoflurane/O2 anesthesia, after which the mice were sacrificed via cervical dislocation. The tumor and organs of interest (heart, lungs, liver, spleen, stomach, large intestine, small intestine, pancreas, kidneys, muscle, skin, and bone) were excised, washed in PBS, and blotted dry. To confirm receptor specificity of radioligand uptake, mice (n = 3) were co-injected with an excess (25 nmol) of the respective unlabeled peptide, and uptake in the organs of interest was determined at 24 h p.i. To determine the total injected radioactivity per animal, a calibration curve with lead-212 was established using the gamma counter. The percentage of injected dose per gram (% ID/g) was determined for each tissue sample and corrected for both the injected volume and the % ID present at the injection site (the tail).

[2] = system: H69-xenograft Balb/c nu/nu mice; experiment: Biodistribution study with lead-212; type: in vivo, mouse; details: n = 4
Protocol: as §1, §2

[3] = In vitro stability in PBS; type: physicochemical; details: ^212Pb-labeled, 37 °C, n = 1
Protocol: The ^203Pb-labeled compounds (~ 2 MBq) or the ^212Pb-labeled compounds (~ 70 kBq) were incubated in 300 µL of phosphate buffered saline (PBS; 0.1 M, pH 7.4) or mouse serum at 37 °C. The stability of the radiolabeled peptides was monitored at 1, 4, and 24 h post-incubation. The samples in PBS were directly analyzed by radio-HPLC without any pretreatment. However, samples of mouse serum were mixed with an equal volume of acetonitrile to precipitate the proteins. The solution was centrifuged twice for 5 min at 13,000 rpm, and the supernatant was analyzed by radio-HPLC using Method 1 for lead-203 and Method 2 for lead-212.

kidney uptake = details: in vivo; cited from earlier work
[4] = blood, 100 kBq, n = 4, read-out: Blood uptake
[5] = intestines, 100 kBq, n = 4, read-out: Intestines uptake
[6] = kidneys, 100 kBq, n = 4, read-out: Kidneys uptake
[7] = liver, 100 kBq, n = 4, read-out: Liver uptake
[8] = lungs, 100 kBq, n = 4, read-out: Lungs uptake
[9] = pancreas, 100 kBq, n = 4, read-out: Pancreas uptake
[10] = skin, 100 kBq, n = 4, read-out: Skin uptake
[11] = spleen, 100 kBq, n = 4, read-out: Spleen uptake
[12] = stomach, 100 kBq, n = 4, read-out: Stomach uptake
[13] = tumor, 100 kBq, n = 4, read-out: Tumor uptake

Structure (SMILES): C[C@@H](O)[C@H](NC(=O)[C@@H]1CSSC[C@H](NC(=O)[C@@H](Cc2ccccc2)NC(=O)CN2CCN(CC(N)=O)CCN(CC(N)=O)CCN(CC(N)=O)CC2)C(=O)N[C@@H](Cc2ccc(O)cc2)C(=O)N[C@H](Cc2c[nH]c3ccccc23)C(=O)N[C@@H](CCCCN)C(=O)N[C@@H]([C@@H](C)O)C(=O)N1)C(=O)O [[^212Pb]Pb-DOTAM-TATE, metal not drawn, reference compound]
- Pancreas uptake (CD-1 mice; 1 h, ref Tworowska et al.): 32 % ID/g
- Kidney uptake (CD-1 mice; 1 h, ref Tworowska et al.): 21 % ID/g
- Pancreas uptake (CD-1 mice; 4 h, ref Tworowska et al.): 15 % ID/g
- Kidney uptake (CD-1 mice; 24 h, ref Tworowska et al.): 10 % ID/g
- MTD (maximum tolerated absorbed dose) to the kidneys (CD-1 mice; mice): 18–23 Gy
- Tumor uptake (CD-1 mice; ref Tworowska et al.): ~ 20 % ID/g
- tissue uptake at 1 h [1, 4]: 1.34 ± 0.53 %ID/g
- tissue uptake at 4 h [1, 4]: 0.02 ± 0.03 %ID/g
- tissue uptake at 1 h ([1]; bone, 100 kBq, n = 4, read-out: Bones uptake): 0.69 ± 0.02 %ID/g
- tissue uptake at 1 h ([1]; heart, 100 kBq, n = 4, read-out: Heart uptake): 0.61 ± 0.34 %ID/g
- tissue uptake at 1 h [1, 5]: 2.03 ± 0.63 %ID/g
- tissue uptake at 4 h [1, 5]: 0.68 ± 0.08 %ID/g
- tissue uptake at 24 h ([1]; intestines, 100 kBq, 24 h p.i., n = 4, read-out: Intestines uptake): 0.22 ± 0.04 %ID/g
- tissue uptake at 1 h [1, 6]: 53.5 ± 4.18 %ID/g
- tissue uptake at 4 h [1, 6]: 49.4 ± 2.92 %ID/g
- tissue uptake at 24 h ([1]; kidneys, 100 kBq, 24 h p.i., n = 4, read-out: Kidneys uptake): 29.2 ± 5.11 %ID/g
- tissue uptake at 24 h ([1]; kidneys, 24 h block: co-injection of excess (25 nmol) unlabeled peptide, read-out: Kidneys uptake): 25.8 ± 9.18 %ID/g
- tissue uptake at 1 h [1, 7]: 2.69 ± 0.18 %ID/g
- tissue uptake at 4 h [1, 7]: 2.26 ± 0.3 %ID/g
- tissue uptake at 24 h ([1]; liver, 100 kBq, 24 h p.i., n = 4, read-out: Liver uptake): 1.42 ± 0.17 %ID/g
- tissue uptake at 24 h ([1]; liver, 24 h block: co-injection of excess (25 nmol) unlabeled peptide, read-out: Liver uptake): 0.25 ± 0.46 %ID/g
- tissue uptake at 1 h [1, 8]: 2.75 ± 0.52 %ID/g
- tissue uptake at 4 h [1, 8]: 0.82 ± 0.36 %ID/g
- tissue uptake at 24 h ([1]; lungs, 100 kBq, 24 h p.i., n = 4, read-out: Lungs uptake): 0.33 ± 0.11 %ID/g
- tissue uptake at 1 h [1, 9]: 5.19 ± 0.84 %ID/g
- tissue uptake at 4 h [1, 9]: 1.14 ± 0.13 %ID/g
- tissue uptake at 24 h ([1]; pancreas, 100 kBq, 24 h p.i., n = 4, read-out: Pancreas uptake): 0.28 ± 0.06 %ID/g
- tissue uptake at 1 h [1, 10]: 1 ± 0.38 %ID/g
- tissue uptake at 4 h [1, 10]: 0.59 ± 0.21 %ID/g
- tissue uptake at 1 h [1, 11]: 0.55 ± 0.21 %ID/g
- tissue uptake at 4 h [1, 11]: 0.22 ± 0.06 %ID/g
- tissue uptake at 1 h [1, 12]: 2.69 ± 0.53 %ID/g
- tissue uptake at 4 h [1, 12]: 1.62 ± 0.5 %ID/g
- tissue uptake at 24 h ([1]; stomach, 100 kBq, 24 h p.i., n = 4, read-out: Stomach uptake): 0.61 ± 0.18 %ID/g
- tissue uptake at 24 h ([1]; stomach, 24 h block: co-injection of excess (25 nmol) unlabeled peptide, read-out: Stomach uptake): 0.25 ± 0.28 %ID/g
- tissue uptake at 1 h [1, 13]: 9.57 ± 3.05 %ID/g
- tissue uptake at 4 h [1, 13]: 8.04 ± 3.26 %ID/g
- tissue uptake at 24 h ([1]; tumor, 100 kBq, 24 h p.i., n = 4, read-out: Tumor uptake): 6.07 ± 1.28 %ID/g
- tissue uptake ([1]; tumor, 100 kBq, time point not stated): 8 to 9 %ID/g
- Stomach uptake ([2]; 1 h p.i.): 2.7 % ID/g
- Tumor uptake ([2]; 4 h p.i.): ~ 9 % ID/g
- Kidneys uptake ([2]; 24 h p.i.): 29 ± 6 % ID/g
- Tumor uptake ([2]; 24 h p.i.): ~ 6 % ID/g
- Stability in PBS, intact labeled ligand ([3]; 1 h): 99%
- Stability in PBS, intact labeled ligand ([3]; 4 h): 98%
- Stability in PBS, intact labeled ligand ([3]; 24 h): 95%
- Reduction in kidney uptake (kidney uptake): 3 fold
